Data from ChEMBL document CHEMBL3217480, “Cytotoxic sugar analogues of an optimized novobiocin scaffold” (Medchemcomm, 2010).
pIC50: −log10 of the molar value. Blank lines part the entries; values can stand above or below the molecule they belong to. Activity calls are given as the source filed them. The rule behind the calls is not given here.

Columns and labels:
[1] = Antiproliferative activity against estrogen receptor-negative, Her2 overexpressing human SKBR3 cells after 72 hrs by MTS assay; type: functional, cell-based; settings: SK-BR-3, 72 h
MCF7 [2] = assay: Antiproliferative activity against estrogen receptor positive human MCF7 cells after 72 hrs by MTS assay; type: functional, cell-based; settings: MCF7, 72 h
[3] = molecular target: Heat shock protein HSP 90-beta (Homo sapiens) (UniProt P08238); assay: Inhibition of HSP90-dependent client protein Her-2 degradation in human MCF7 cells after 24 hrs by Western blot analysis; type: cell-based
Chain of Heat shock protein HSP 90-beta (Homo sapiens) (P08238 whole entry): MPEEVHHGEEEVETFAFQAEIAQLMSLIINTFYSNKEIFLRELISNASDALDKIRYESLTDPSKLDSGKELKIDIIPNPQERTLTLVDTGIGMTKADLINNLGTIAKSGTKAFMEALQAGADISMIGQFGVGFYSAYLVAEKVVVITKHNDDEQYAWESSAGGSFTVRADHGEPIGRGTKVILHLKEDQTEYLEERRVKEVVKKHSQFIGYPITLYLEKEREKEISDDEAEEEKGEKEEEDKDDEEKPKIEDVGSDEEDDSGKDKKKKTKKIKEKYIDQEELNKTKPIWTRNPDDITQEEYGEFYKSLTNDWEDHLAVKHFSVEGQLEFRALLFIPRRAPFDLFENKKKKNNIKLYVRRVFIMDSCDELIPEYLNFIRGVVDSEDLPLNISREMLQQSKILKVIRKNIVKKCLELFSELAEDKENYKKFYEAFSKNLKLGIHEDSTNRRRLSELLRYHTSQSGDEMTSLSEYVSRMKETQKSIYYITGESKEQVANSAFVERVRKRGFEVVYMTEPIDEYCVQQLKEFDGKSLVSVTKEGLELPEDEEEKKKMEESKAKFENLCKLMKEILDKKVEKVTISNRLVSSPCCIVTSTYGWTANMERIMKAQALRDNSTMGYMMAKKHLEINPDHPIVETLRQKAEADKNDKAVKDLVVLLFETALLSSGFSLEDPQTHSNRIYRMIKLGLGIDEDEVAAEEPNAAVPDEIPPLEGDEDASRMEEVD

MCF7 [4] = assay: Effect on Hsp90 protein expression in human MCF7 cells at 0.5 to 25 uM after 24 hrs by Western blot analysis; type: functional, cell-based
[5] = molecular target: Heat shock protein HSP 90-beta (Homo sapiens) (UniProt P08238); assay: Inhibition of HSP90-dependent client protein Raf degradation in human MCF7 cells after 24 hrs by Western blot analysis; type: cell-based
MCF7 [6] = assay: Effect on actin expression in human MCF7 cells at 0.5 to 25 uM after 24 hrs by Western blot analysis; type: ADME, cell-based; settings: mcf7, 24 h
[7] = molecular target: Heat shock protein HSP 90-beta (Homo sapiens) (UniProt P08238); assay: Inhibition of HSP90-dependent client protein Akt degradation in human MCF7 cells after 24 hrs by Western blot analysis; type: cell-based
[8] = Inhibition of human SKBR3 cell proliferation; type: functional, cell-based; settings: SK-BR-3
PC-3 = assay: Inhibition of human PC3 cell proliferation; type: functional, cell-based
LNCaP = assay: Inhibition of human LNCAP cell proliferation; type: functional, cell-based
HCT-116 = assay: Inhibition of human HCT116 cell proliferation; type: functional, cell-based
[9] = Inhibition of human Jurkat T cell cell proliferation; type: functional, cell-based
[10] = Inhibition of human PL45 cell proliferation; type: functional, cell-based

Structure (SMILES): COc1cccc(-c2cc(C(=O)Nc3cc4ccc(O[C@@H]5OC(C)(C)[C@H](OC)[C@@H](O)[C@H]5O)c(C)c4oc3=O)ccc2OC)c1
- pIC50 [1]: 5.12
- pIC50 [8]: 5.12
- pIC50 (MCF7 [2]): 4.73

Structure (SMILES): COc1cccc(-c2cc(C(=O)Nc3cc4ccc(O[C@@H]5CCC[C@@H](O)[C@H]5O)c(C)c4oc3=O)ccc2OC)c1
- pIC50 [1]: < 4.00
- pIC50 (MCF7 [2]): < 4.00

Structure (SMILES): CNC(=O)Oc1ccc2cc(NC(=O)c3ccc(OC)c(-c4cccc(OC)c4)c3)c(=O)oc2c1C
- inhibition [3]: Dose-dependent effect
- Activity (MCF7 [4]): inactive
- inhibition [5]: Dose-dependent effect
- Activity (MCF7 [6]): Non-toxic
- inhibition [7]: Dose-dependent effect

Structure (SMILES): COc1cccc(-c2cc(C(=O)Nc3cc4cc(OC)c(O[C@@H]5OC(C)(C)[C@H](OC)[C@@H](O)[C@H]5O)c(C)c4oc3=O)ccc2OC)c1
- pIC50 [1]: 4.23
- pIC50 [8]: 4.23
- pIC50 (MCF7 [2]): < 4.00

Structure (SMILES): COc1cccc(-c2cc(C(=O)Nc3cc4cc(OC)c(OC(C)=O)c(C)c4oc3=O)ccc2OC)c1
- pIC50 (PC-3): 6.01
- pIC50 (LNCaP): 6.38
- pIC50 [8]: 5.24
- pIC50 (HCT-116): 6.28
- pIC50 [9]: 6.38
- pIC50 [10]: 5.39
- pIC50 (MCF7 [2]): 5.82

Second part, led by results:

- pIC50 (MCF7 [2]): 5.04
Structure (SMILES): COc1cccc(-c2cc(C(=O)Nc3cc4ccc(OC5CCCN(C(C)=O)C5)c(C)c4oc3=O)ccc2OC)c1 (centres undefined)
- pIC50 [1]: 4.97

- inhibition [3]: Dose-dependent effect
- inhibition [5]: Dose-dependent effect
- inhibition [7]: Dose-dependent effect
Structure (SMILES): COc1cccc(-c2cc(C(=O)Nc3cc4ccc(OC5CCN(C)CC5)c(C)c4oc3=O)ccc2OC)c1
- Activity (MCF7 [4]): inactive
- Activity (MCF7 [6]): Non-toxic

- pIC50 (MCF7 [2]): 4.95
Structure (SMILES): COc1cccc(-c2cc(C(=O)Nc3cc4ccc(O[C@H]5C[C@H](O)CCO5)c(C)c4oc3=O)ccc2OC)c1
- pIC50 [1]: 5.03
